Experimental data: patent US20020155381A1, “Optical data carrier comprising a light-absorbent compound having a plurality of chromophoric centres in the information layer” (priority 2001, published 2002)

How the values were obtained:
Assay type in all cases: physicochemical
[1] = Solubility in coating solvent
[2] = Spin coating on fused silica support: film quality and film thickness from transmission and reflection spectra; conditions: for kind of film obtained by spin coating: 1-2 parts of solid per 100 in TFP or THF; for film thickness: spin coated from 1 part of solid to 99 parts of TFP, before vacuum
Protocol: A 1/1 mixture (by mass) of substances of the following formulae was dissolved in tetrafluoropropanol (TFP) in a mass ratio of 2 parts of solid to 98 parts of TFP. […] Evaluation of the transmission and reflection spectra indicated a film thickness of 165 nm. [drawing 62]
(§1) Determination of the complex index of refraction and the thickness of the layer of the organic substances by means of transmission and reflection spectra:
(§2) The transmission and reflection spectra of the layer systems film/fused silica or SiN/film/fused silica or SiN/fused silica were determined with perpendicular incidence of a parallel beam of light in a wavelength range of from 200 nm to 1 700 nm. […] The reflected light was detected at an angle of 172° relative to the direction of incidence. Two different thicknesses of the organic film were in each case produced by spin coating. The thickness of the layer was adjusted by means of the solution concentration. The thicknesses were in the range from 50 nm to 500 nm. To evaluate the transmission and reflection spectra, the known Fresnel formulae were employed and the interferences caused by multiple reflection in the layer system were taken into account. A simultaneous least squares fit of the measured transmission and reflection spectra to the calculated spectra of the two layer systems of differing thickness enabled the layer thicknesses and the complex index of refraction of the organic substance to be determined at each wavelength. For this purpose, the index of refraction of the fused silica support has to be known. The index of refraction curve of the fused silica substrate in this spectral range was determined independently on an uncoated substrate.

[3] = Vacuum treatment of the spin-coated film (simulated sputtering conditions), layer thickness afterwards; conditions: vacuum ~10^-6 mbar, 1 hour, room temperature
Protocol: This film was subjected to a vacuum (pressure ˜10^−6 mbar) for 1 hour at room temperature to simulate the conditions when applying metallic or dielectric layers by sputtering during the production of optical data carriers.
as §1, §2

[4] = SiN vapour deposition on the organic film, apparent thickness of the organic film
Protocol: A layer of SiN was subsequently applied by vapour deposition on top of the layer which had been pretreated in the above-described manner. Vapour deposition was carried out by electric heating of Si3N4 in a molybdenum boat under reduced pressure. The pressure during the vapour deposition process was ˜10^−4 mbar, and the deposition rate was ˜4-5 Angström per second. To determine the complex index of refraction of the deposited SiN layer, control experiments were carried out on plain fused silica plates. The thickness of the SiN layer was determined by means of a profiler (Tencor Alpha Step 500 Surface Profiler). In turn, evaluation of the transmission and reflection spectra of the layer system taking into account the complex index of refraction and the thickness of the SiN layer enabled the apparent thickness of the organic film to be determined. It was 94 nm. […]
The transmission and reflection spectra of the layer systems film/fused silica or SiN/film/fused silica or SiN/fused silica were determined with perpendicular incidence of a parallel beam of light in a wavelength range of from 200 nm to 1 700 nm. […] The reflected light was detected at an angle of 172° relative to the direction of incidence. […] The index of refraction curve of the fused silica substrate in this spectral range was determined independently on an uncoated substrate.

**Q.** With `CN(CCOC(=O)CCC(=O)OCCN(C)c1ccc(C(C#N)=C(C#N)C#N)cc1)c1ccc(C(C#N)=C(C#N)C#N)cc1` [Example 5] as the molecule, how does the solubility ([1]; in TFP (tetrafluoropropanol)) read?
**A.** The solubility was 1%.

**Q.** With `N#C/C(=C\c1cccn1CCCn1cccc1/C=C(\C#N)c1ccccc1)c1ccccc1` [Example 9] as the molecule, how does the solubility ([1]; in diacetone alcohol) read?
**A.** The solubility was 2%.

**Q.** Which solubility ([1]; in TFP (tetrafluoropropanol)) does the source give for `CC1(C)CC(=O)C(=Cc2ccc(N3CCN(c4ccc(C=C5C(=O)CC(C)(C)CC5=O)o4)CC3)o2)C(=O)C1` [Example 10] here?
**A.** The solubility was 2%.

**Q.** Which solubility ([1]; in TFP (tetrafluoropropanol)) does the source give for `CCN(CC)c1ccc(/C=C/c2cc[n+](Cc3ccccc3C[n+]3ccc(/C=C/c4ccc(N(CC)CC)cc4)cc3)cc2)cc1` [Example 12] here?
**A.** The solubility was 2%.

**Q.** With `CN(CCC#N)c1ccc(/C=C/C2=[N+](CCCC[N+]3=C(/C=C/c4ccc(N(C)CCC#N)cc4)C(C)(C)c4ccccc43)c3ccccc3C2(C)C)cc1` [Example 13] as the molecule, how does the solubility ([1]; in TFP (tetrafluoropropanol)) read?
**A.** The solubility was 2%.

**Q.** For `COc1cc2c(cc1OC)C(C)(C)C/C2=C(/C#N)C(=O)OCCOC(=O)/C(C#N)=C1\CC(C)(C)c2cc(OC)c(OC)cc21` [Example II], which “kind of film obtained by spin coating” value [2] is on record?
**A.** Its value is “transparent film”.

**Q.** And the film thickness [2]?
**A.** The film thickness was 85 nm.

**Q.** What about the “retention of the substance after vacuum treatment” value [3] of the same molecule?
**A.** Its value is “fully retained”.

**Q.** And the “total thickness d of the layer after vacuum treatment” value [3]?
**A.** Its value is 85 nm.

**Q.** With `CCCOC(=O)/C(C#N)=C/c1ccc(C)o1` [Example IV, reference compound] as the molecule, how does the “kind of film obtained by spin coating” value [2] read?
**A.** The value was “crystalline film”.

**Q.** Which results are given for `Cc1ccc(/C=C(\C#N)C(=O)OCC(C)(COC(=O)/C(C#N)=C/c2ccc(C)o2)COC(=O)/C(C#N)=C/c2ccc(C)o2)o1` [Example V]?
**A.** kind of film obtained by spin coating [2]: transparent film; film thickness [2]: 153 nm; retention of the substance after vacuum treatment [3]: virtually fully retained; total thickness d of the layer after vacuum treatment [3]: 143 nm; change of the layer by the SiN vapour deposition process ([4]; SiN deposited at ~10^-4 mbar on vacuum-pretreated layer): the layer has not been changed; apparent thickness of the organic film after SiN vapour deposition ([4]; SiN deposited at ~10^-4 mbar, ~4-5 Angström per second, on vacuum-pretreated layer): 160 nm
